Laboratory results from patent US20140178305A1, “IDENTIFICATION AND USE OF ANXIOLYTIC COMPOUNDS” (CALIFORNIA INSTITUTE OF TECHNOLOGY, priority 2012, published 2014).

Assays:
MRGPRB4+ fibres = assay: Two-photon in vivo calcium imaging (GCaMP3.0) of central afferent fibres through a spinal cord laminectomy, chemical stimuli; design: species or system mouse
Protocol: (§1) Mice expressing reporters and/or Cre recombinase targeted to the MrgprB4 locus were generated by homologous recombination in embryonic stem cells, according to standard procedures. Heterozygous neonates from MrgprD-Cre and MrgprB4-Cre mice were injected intraperitoneally with Cre-dependent AAV8 viruses expressing GCaMP3.0 or mGCaMP3.0 or hM3(Gq-coupled) DREADD, and imaged as adults (≧8 weeks old).
(§2) Electrophysiology experiments on ex vivo skin-nerve preparations from adult heterozygous Mrgprb4-EGFPf reporter mice were performed as described in Woodbury, et al. J. Comp. Neurol. 436, 304-323 (2001). For calcium imaging, after a dorsal laminectomy the spinal column was stabilized and filled with imaging solution (see below for details). Imaging was performed using a two-photon laser-scanning microscope (Ultima, Prairie Inc.) using an Olympus 40×0.8 N.A. water immersion objective, at 128×128 pixel resolution with an acquisition rate of 8-12 frames per second. Mechanical stimuli were delivered using a custom-modified No. 5 sable paint brush or serrated forceps, in a manner electronically time-stamped to image acquisition, as may be seen in FIGS. 18A-18C and further discussed below. Stimuli were delivered to each mouse in a series of trials, separated by a few minutes; each trial consisted of one or more stimuli delivered typically at intervals of several seconds. Chemical stimuli were delivered to the spinal cord using a Pipetman pipette and to the periphery using a syringe pump. Calcium responses were analysed using custom software written in Matlab (see below for more details). For calculating ΔF/F [(Fav−F0)/F0], F0 is the average of the first ten frames of the recording period.
(§3) Mice 2 months or older were sedated by i.p. injection of a mix of ketamine (100 mg/kg), xylazine (15 mg/kg), acepromazine (2.5 mg/kg in 0.9% NaCl). During surgery, body temperature was maintained at 37° C. with a heating blanket.
(§4) A dorsal laminectomy was performed mostly at spinal level L2-L4 (but occasionally at L1-L3) as described in Johannssen, et al. J. Physiol. (Lond.) 588:3397-3402 (2010), but without removing the dura. The spinal column was stabilized using Narishige STS-A spinal clamps. In addition a head-holding adaptor from Kopf (923-B Mouse Gas Anaesthesia Head Holder) was used that has installed an anaesthesia/gas mask for positioning the mouse head. In this apparatus the gas is applied through a standard hose barb positioned above the nose on the mask. The inlet fills a large gas chamber around the snout, a second hose barb below the mask is provided for vacuuming off excess, expelled gasses. The animals were maintained under continuous anaesthesia for the duration of the imaging experiments with 1-2% isofluorane or with hourly injections of the above ketamine mix. A well was built around the exposed spinal cord using Gelseal (Amersham Biosciences Corp) and Kwik Sil Adhesive (WPI). Warm imaging solution (in mM: 130 NaCl, 3 KCl, 2.5 CaCl2, 0.6 6H2O.MgCl2, 10 HEPES without Na, 1.2 NaHCO3, 10 glucose, pH7.45 with NaOH) (37° C.) was repeatedly applied to prevent drying and maintain tissue integrity, and to allow the use of immersion objectives. During imaging the body temperature of the animals was maintained at 37° C. with a heating blanket and an air-therm heater (WPI) placed inside the microscope area.
(§5) Imaging experiments were performed under a two-photon laser-scanning microscope (Ultima, Prairie Instruments Inc.). Live images were acquired at 8-12 frames per second, at depths below the pia ranging from 100 to 250 μm, using an Olympus 40×0.8 N.A. water immersion objective, at 128×128 pixel resolution with a laser tuned to 940 nm wavelength, and emission filters 525/50 nm and 595/50 nm for green and red fluorescence, respectively. Laser power was adjusted to be 20-25 mW at the focal plane (maximally 35 mW), depending on the imaging depth and level of expression of GCaMP3.0. […]

MRGPRD+ fibres = assay: as above; design: species or system mouse
Protocol: as §1, §2, §3, §4, §5

[1] = tested on: MRGPRB4+ neurons engineered to express TRPV1; assay: Calcium imaging after peripheral injection of capsaicin in MrgprB4-Cre; Rosa26-loxP-STOP-loxP-TrpV1 mice; assay type: in vivo, mouse; settings: adult MrgprB4-Cre, peripheral injection (10 μl of 1 mM)
Protocol: α,β-methyl ATP (10 μl from 1 mM solution) and capsaicin (10 μl from 1 mM solution (10% DMSO in saline)) was injected in the ventral and dorsal hindpaw of MrgprD and MrgprB4 mice, respectively, using a syringe pump (WPI, Inc., sp200i syringe pump). The timing of the injection was controlled by the two-photon image acquisition system and associated software (Prairie View and Trigger Sync, Prairie Technologies) to link it with image acquisition.
In the case of chemical stimulation (delivered either to the spinal cord or to the periphery), typically a single trial was performed for a given mouse, due to the difficulty of maintaining the same focal plane during the period of application of the chemical to the spinal cord or the period required for diffusion of the liquid bolus delivered for peripheral injection, respectively. In these cases, therefore, the MPI ΔF/Fpeak before and during the stimulation period were calculated for multiple mice imaged using ROIs of similar size, and were compared for statistical significance (relative to pre-stimulus baseline) by repeated measures ANOVA, followed by Bonferroni-corrected post-hoc comparison of means (unless stated otherwise). The ΔF/F values in FIGS. 11B and 11E were corrected for photobleaching as described in Berry, et al. Neuron 74:530-542 (2012). […]

[2] = direct application to the spinal cord, KCl 60 mM, n=3
[3] = injection into the dorsal (hairy) skin of the hindpaw (10 μl of 1 mM), n=3
[4] = injection into the glabrous skin of the hind paw (10 μl of 1 mM), n=3
[5] = spinal application, 5 mM, mean ± range, n=2

SMILES: [Cl-].[K+] [KCl]
- activation of fibres after application to the spinal cord (positive control) (MRGPRB4+ fibres; KCl, same field of view as the CNO test in GCaMP3.0-only mice): robust activation
- mean latency to peak (MLP) (MRGPRB4+ fibres; [2]): 9.3 ± 4.15 s
- mean percent increase in peak ΔF/F (MPI ΔF/Fpeak) (MRGPRB4+ fibres; [2]): 201.6±33.2%
- mean percent increase in peak ΔF/F (MPI ΔF/Fpeak) (MRGPRD+ fibres; direct application to the spinal cord, KCl 60 mM, mean ± s.e.m., n=3): 222±19%
- mean latency to peak (MLP) (MRGPRD+ fibres; [2]): 8.6 ± 3.6 s

SMILES: COc1cc(CNC(=O)CCCC/C=C/C(C)C)ccc1O [capsaicin]
- calcium transients evoked by peripheral injection (MRGPRB4+ fibres; control MrgprB4-Cre mice without TRPV1, peripheral injection): no such signals were observed
- calcium transients evoked by peripheral injection [1]: induced robust calcium transients

SMILES: Nc1ncnc2c1ncn2[C@@H]1O[C@H](COP(=O)(O)CP(=O)(O)OP(=O)(O)O)[C@@H](O)[C@H]1O [α,β Me-ATP, α,β-methylene (Me) ATP]
- MLP (MRGPRB4+ fibres; [3]): 21.9 ± 12.6 s
- MPI [ΔF/F]peak (MRGPRB4+ fibres; [3]): 142±0.6%
- calcium transients evoked by peripheral injection (MRGPRB4+ fibres; mice expressing GCaMP3.0 but not TRPV1 in MrgprB4+ neurons, FIG. 8F): exhibit calcium transients
- calcium response after application to the spinal cord (MRGPRD+ fibres; MrgD mice, FIG. 7E): induced a strong calcium response
- MLP (MRGPRD+ fibres; [4]): 25.7 ± 10.5 s
- MPI [ΔF/F]peak (MRGPRD+ fibres; [4]): 137±51%
- MLP (MRGPRD+ fibres; [5]): 16.3±1.3
- MPI [ΔF/F]peak (MRGPRD+ fibres; [5]): 249±54%
